Data as given in US20230295200A1 (REGENTS OF THE UNIVERSITY OF MICHIGAN, priority 2022, published 2023).

Biological target: T1, STAT6 protein (Homo sapiens, UniProt P42226)
T1 sequence (P42226 1-847): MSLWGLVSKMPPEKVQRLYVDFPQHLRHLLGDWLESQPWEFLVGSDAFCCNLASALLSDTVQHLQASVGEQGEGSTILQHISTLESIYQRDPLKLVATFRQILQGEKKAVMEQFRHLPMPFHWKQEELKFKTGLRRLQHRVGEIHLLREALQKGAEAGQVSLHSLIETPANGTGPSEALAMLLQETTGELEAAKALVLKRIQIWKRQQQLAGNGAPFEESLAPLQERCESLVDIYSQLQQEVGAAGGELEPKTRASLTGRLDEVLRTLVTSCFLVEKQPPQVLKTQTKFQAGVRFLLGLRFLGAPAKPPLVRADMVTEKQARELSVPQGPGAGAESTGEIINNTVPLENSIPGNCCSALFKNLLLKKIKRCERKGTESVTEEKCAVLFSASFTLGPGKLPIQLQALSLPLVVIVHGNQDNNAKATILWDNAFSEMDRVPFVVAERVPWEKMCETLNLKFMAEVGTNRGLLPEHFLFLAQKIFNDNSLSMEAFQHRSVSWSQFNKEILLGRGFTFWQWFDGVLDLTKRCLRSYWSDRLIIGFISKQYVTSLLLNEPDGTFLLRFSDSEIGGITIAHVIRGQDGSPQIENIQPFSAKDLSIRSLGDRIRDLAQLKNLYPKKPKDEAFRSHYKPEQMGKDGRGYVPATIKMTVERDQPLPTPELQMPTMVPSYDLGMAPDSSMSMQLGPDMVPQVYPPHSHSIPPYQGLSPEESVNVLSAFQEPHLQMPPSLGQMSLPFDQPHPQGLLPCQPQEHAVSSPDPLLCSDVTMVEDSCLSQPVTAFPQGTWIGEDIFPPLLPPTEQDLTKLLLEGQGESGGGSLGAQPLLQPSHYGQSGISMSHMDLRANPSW
Test: Fluorescence polarization (FP) binding assay, STAT6
Conditions: FP competition, 5 nM fluorescein-labeled tracer, 200 nM protein, PBS pH7.4; read-out: Binding STAT6
Experimental: Evaluation of the activity of the inhibitors may be accomplished by fluorescence polarization (FP) experiments. A representative general protocol is the following:
Fluorescence polarization (FP) experiments are performed in black round-bottom plates using the CLARIOstar microplate reader. To each well, fluorescein-labeled tracer and STAT5 or STAT6 protein are added in assay buffer. […] The inhibition constants are determined as the concentration of the STAT5 or STAT6 at which 50% of the ligand is bound.
Fluorescence polarization (FP) experiments were performed in 96-well, black round-bottom plates (Microfluor 2, Fisher Scientific) using the CLARIOstar microplate reader (BMG Labtech). To each well, 5 nM of fluoresceinlabeled tracer and 200 nM of STAT5 and/or STAT6 protein were added to a final volume of 100 μl in the assay buffer (PBS pH7.4+0.01% BGG+0.01% Tween-20, 2 mM DTT). The plate was mixed on a shaker for 15 m and incubated at room temperature for 1 h to reach equilibrium. […] All experimental data were analyzed using Prism 8.0 software (GraphPad Software), and the inhibition constants were determined by nonlinear curve fitting as the concentration of the STAT5 and/or STAT6 at which 50% of the ligand is bound.

Ki [nM]	Structure (SMILES)
1000 to 10000	CCOC(=O)CO[C@H]1C[C@@H](C(=O)Nc2ccc(I)cc2)N(C(=O)[C@@H](NC(=O)c2cc3cc(C(F)(F)P(=O)(O)O)ccc3s2)C(C)(C)C)C1 [Compound 53, ((2-(((S)-1-((2S,4S)-4-(2-ethoxy-2-oxoethoxy)-2-((4-iodophenyl)carbamoyl)pyrrolidin-1-yl)-3,3-dimethyl-1-oxobutan-2-yl)carbamoyl)benzo[b]thiophen-5-yl)difluoromethyl)phosphonic acid]
100 to 1000	O=C(N[C@@H](CC1CCN(CC2CCCCC2)CC1)C(=O)N1CCC[C@H]1C(=O)N1CCO[C@H](c2ccccc2)C1)c1cc2cc(C(F)(F)P(=O)(O)O)ccc2s1 [Compound 294, ((2-(((S)-3-(1-(cyclohexylmethyl)piperidin-4-yl)-1-oxo-1-((S)-2-((R)-2-phenylmorpholine-4-carbonyl)pyrrolidin-1-yl)propan-2-yl)carbamoyl)benzo[b]thiophen-5-yl)difluoromethyl)phosphonic acid]
< 100	CC(C)(C)[C@H](NC(=O)c1cc2cc(C(F)(F)P(=O)(O)O)ccc2s1)C(=O)N1Cc2ccccc2C[C@H]1C(=O)N1CCOC(c2cccc(Cl)c2)C1 (stereo partly drawn) [Compound 233, ((2-(((2S)-1-((3S)-3-(2-(3-chlorophenyl)morpholine-4-carbonyl)-3,4-dihydroisoquinolin-2(1H)-yl)-3,3-dimethyl-1-oxobutan-2-yl)carbamoyl)benzo[b]thiophen-5-yl)difluoromethyl)phosphonic acid]
100 to 1000	CCOC(=O)CO[C@H]1C[C@@H](C(=O)N(C)c2ccc(Br)cc2)N(C(=O)[C@@H](NC(=O)c2cc3cc(C(F)(F)P(=O)(O)O)ccc3s2)C(C)(C)C)C1 [Compound 54, ((2-(((S)-1-((2S,4S)-2-((4-bromophenyl)(methyl)carbamoyl)-4-(2-ethoxy-2-oxoethoxy)pyrrolidin-1-yl)-3,3-dimethyl-1-oxobutan-2-yl)carbamoyl)benzo[b]thiophen-5-yl)difluoromethyl)phosphonic acid]
> 10000	CC(=O)N1CC[C@H]2CC[C@@H](C(=O)NC(C)(C)c3ccccc3)N2C(=O)[C@@H](NC(=O)c2cc3cc(C(F)(F)P(=O)(O)O)ccc3[nH]2)C1 [Compound 339, ((2-(((5S,8S,10aR)-3-acetyl-6-oxo-8-((2-phenylpropan-2-yl)carbamoyl)decahydropyrrolo[1,2-a][1,5]diazocin-5-yl)carbamoyl)-1H-indol-5-yl)difluoromethyl)phosphonic acid]
100 to 1000	CC(C)(C)[C@H](NC(=O)c1cc2cc(C(F)(F)P(=O)(O)O)ccc2s1)C(=O)N1Cc2ccccc2C[C@H]1C(=O)N1CCCOC(c2ccccc2)C1 (stereo partly drawn) [Compound 220, ((2-(((2S)-3,3-dimethyl-1-oxo-1-((3S)-3-(2-phenyl-1,4-oxazepane-4-carbonyl)-3,4-dihydroisoquinolin-2(1H)-yl)butan-2-yl)carbamoyl)benzo[b]thiophen-5-yl)difluoromethyl)phosphonic acid]
100 to 1000	CC(C)(C)[C@H](NC(=O)c1cc2cc(C(F)(F)P(=O)(O)O)ccc2s1)C(=O)N1Cc2ccccc2C[C@H]1C(=O)N1CCOC(c2ccncc2)C1 (stereo partly drawn) [Compound 218, ((2-(((2S)-3,3-dimethyl-1-oxo-1-((3S)-3-(2-(pyridin-4-yl)morpholine-4-carbonyl)-3,4-dihydroisoquinolin-2(1H)-yl)butan-2-yl)carbamoyl)benzo[b]thiophen-5-yl)difluoromethyl)phosphonic acid]
1000 to 10000	CC(=O)N1CC[C@H]2CC[C@@H](C(=O)N(c3ccccc3)c3ccccc3)N2C(=O)[C@@H](NC(=O)c2cc3cc(C(F)(F)P(=O)(O)O)ccc3[nH]2)C1 [Compound 362, ((2-(((5S,8S,10aR)-3-acetyl-8-(diphenylcarbamoyl)-6-oxodecahydropyrrolo[1,2-a][1,5]diazocin-5-yl)carbamoyl)-1H-indol-5-yl)difluoromethyl)phosphonic acid]
< 100	O=C(N[C@@H](Cc1cccc([N+](=O)[O-])c1)C(=O)N1CCC[C@H]1C(=O)N1CCO[C@H](c2ccccc2)C1)c1cc2cc(C(F)(F)P(=O)(O)O)ccc2s1 [Compound 282, (difluoro(2-(((S)-3-(3-nitrophenyl)-1-oxo-1-((S)-2-((R)-2-phenylmorpholine-4-carbonyl)pyrrolidin-1-yl)propan-2-yl)carbamoyl)benzo[b]thiophen-5-yl)methyl)phosphonic acid]
> 10000	CC(=O)N1CC[C@H]2CC[C@@H](C(=O)NC3(c4ccccc4)CC3)N2C(=O)[C@@H](NC(=O)c2cc3cc(C(F)(F)P(=O)(O)O)ccc3[nH]2)C1 [Compound 340, ((2-(((5S,8S,10aR)-3-acetyl-6-oxo-8-((1-phenylcyclopropyl)carbamoyl)deca hydropyrrolo[1,2-a][1,5]diazocin-5-yl)carbamoyl)-1H-indol-5-yl)difluoromethyl)phosphonic acid]
1000 to 10000	CC(=O)N1CC[C@H]2CC[C@@H](C(=O)N[C@@H](C)c3ccccc3)N2C(=O)[C@@H](NC(=O)c2cc3cc(C(F)(F)P(=O)(O)O)ccc3[nH]2)C1 [Compound 337, ((2-(((5S,8S,10aR)-3-acetyl-6-oxo-8-(((S)-1-phenylethyl)carbamoyl)decahydropyrrolo[1,2-a][1,5]diazocin-5-yl)carbamoyl)-1H-indol-5-yl)difluoromethyl)phosphonic acid]
> 10000	CC(=O)N1CC[C@H]2CC[C@@H](C(=O)N3CCCCC4(CCCC4)C3)N2C(=O)[C@@H](NC(=O)c2cc3cc(C(F)(F)P(=O)(O)O)ccc3s2)C1 [Compound 391, ((2-(((5S,85,10aR)-3-acetyl-6-oxo-8-(7-azaspiro[4.6]undecane-7-carbonyl)decahydropyrrolo[1,2-a][1,5]diazocin-5-yl)carbamoyl)benzo[b]thiophen-5-yl)difluoromethyl)phosphonic acid]
100 to 1000	CC(C)CCN1CCC(C[C@H](NC(=O)c2cc3cc(C(F)(F)P(=O)(O)O)ccc3s2)C(=O)N2CCC[C@H]2C(=O)N2CCO[C@H](c3ccccc3)C2)CC1 [Compound 293, (difluoro(2-(((S)-3-(1-isopentylpiperidin-4-yl)-1-oxo-1-((S)-2-((R)-2-phenylmorpholine-4-carbonyl)pyrrolidin-1-yl)propan-2-yl)carbamoyl)benzo[b]thiophen-5-yl)methyl)phosphonic acid]
100 to 1000	O=C(N[C@@H](Cc1ccncc1)C(=O)N1CCC[C@H]1C(=O)N1CCO[C@H](c2ccccc2)C1)c1cc2cc(C(F)(F)P(=O)(O)O)ccc2s1 [Compound 270, (difluoro(2-(((S)-1-oxo-1-((S)-2-((R)-2-phenylmorpholine-4-carbonyl)pyrrolidin-1-yl)-3-(pyridin-4-yl)propan-2-yl)carbamoyl)benzo[b]thiophen-5-yl)methyl)phosphonic acid]
100 to 1000	CC(C)(C)[C@H](NC(=O)c1cc2cc(C(F)(F)P(=O)(O)O)ccc2s1)C(=O)N1Cc2ccccc2C[C@H]1C(=O)N1CCCC(c2ccc(Cl)cc2)C1 (stereo partly drawn) [Compound 246, ((2-(((2S)-1-((3S)-3-(3-(4-chlorophenyl)piperidine-1-carbonyl)-3,4-dihydroisoquinolin-2(1H)-yl)-3,3-dimethyl-1-oxobutan-2-yl)carbamoyl)benzo[b]thiophen-5-yl)difluoromethyl)phosphonic acid]
